From patent publication US20170022288A9, “PANCREATIC CANCER ASSOCIATED ANTIGEN, ANTIBODY THERETO, AND DIAGNOSTIC AND TREATMENT METHODS” (priority 2003, published 2017)

Key:
BMRPA1 cells [1] = experiment: Anchorage independent colony formation on agar; format: cell-based, rat; conditions: NNK-treated BMRPA1 cells; days after seeding 9; 30 sequential 1 mm^2 fields, average of 5 TCFs ± SEM
Experimental: Aliquots of 4 ml of 0.5% agar-medium mixture (agar was autoclaved in 64 mL H2O, cooled in a water bath to 50° C., and added to 15 mL 5× cRPMI, 19 mL FBS and 1 mL P/S) were poured into 25 cm^2 TCFs and allowed to harden overnight at 4° C. Prior to plating the cells, the flasks were placed in the COT-Air incubator for up to 5 h at 37° C. to facilitate equilibration of pH and temperature. Cells were collected by Trypsin-EDTA, 0.1 mL, of cell suspension (40000/mL cells in cRPMI) was dispersed carefully over the agar surface of each flask and the cultures were returned to the 37° C. incubator with […]-5% CO2. After 24 h, the agar-coated TCFs were inverted to allow drainage of excess medium. The cultures were examined microscopically after 9 d and 14 d for growth of colonies using a Zeiss inverted microscope.
The ability of the cloned BMRPA.1NNK and untreated BMRPA1 cells to grow on agar was examined by dispersing cells at low density onto soft agar (see Example 1).

BMRPA1 cells [2] = experiment: BrdU incorporation (FACS); format: cell-based, rat; conditions: NNK-treated vs untransformed BMRPA1 cells
Experimental: Cells (5×10^4) were plated in 60 mm TCD, and allowed to grow in cRPMI-10% FBS. […] Briefly, 10^6 trypsin-EDTA released cells were washed twice in PBS-1% BSA, fixed in 70% ethanol for 30 min, and resuspended in RNAase A (0.1 mg/mL) for 30 min at 37° C. After washing the cells, their DNA was denatured with 2N HCl/Triton X-100 for 30 min, and neutralized with 0.1 M Na2B4O7.10H2O, pH 8.5. The cells were then washed in PBS-1% BSA with 0.5% Tween 20, and resuspended in 50 uL of 0.5% Tween in PBS-1% BSA solution with 20 uL of FITC-AntiBrdU antibody. After 45 min at 37° C., the cells were washed, resuspended in 1 mL of Na Citrate buffer containing Propidium Iodide (0.005 mg/mL) and RNAase A (0.1 mg/mL). Fluorescent activated cell sorting or flow cytometry (FACS) analysis to detect the incorporated BrdU and PI staining was performed by using a FACScan analyzer from Becton Dickinson Co. equipped with an Argon ion laser using excitation wavelength of 488 nm. Data analysis was performed using the LYSYS II program.
The measurement of BrdU incorporation in RNAase treated cells is routinely used to assess DNA synthesis during the S phase of proliferating cells (Alberts B., Johnson, A., Lewis, J., Raff, M., Roberts, K., Walter, P., 2002, Molecular Biology of the Cell. Garland Science, Taylor and Francis, 4th ed., NY). […]

BMRPA1 cells [3] = experiment: Cell growth at reduced serum (crystal violet assay); format: cell-based, rat; conditions: NNK-transformed vs untreated BMRPA1 cells, 12 days
Experimental: To measure cell growth at 10% FBS, cells were seeded at 5×10^4 cell/60 mm TCD containing 4 ml of cRPMI-10% FBS. Every 3 d, triplicate TCDs were removed for each cell line under study, the cells were released with trypsin-EDTA, and counted in the presence of trypan blue. To assess the effect of cRPMI containing reduced FBS concentrations on cell growth, equal numbers (1.5×10^4 cell/ml/well) of NNK-treated and untreated BMRPA1 cells were seeded in triplicate wells of 24 well TCDs. The cells were allowed to adhere overnight in cRPMI 10% FBS, washed with PBS, and reincubated with cRPMI containing the indicated % FBS. Cell growth was evaluated by a modification of the crystal violet relative proliferation assay (Serrano, 1997). Briefly, the cells were washed with PBS, fixed in 10% buffered formalin followed by rinsing with distilled water. The cells were then stained with 0.1% Crystal Violet for 30 min at room temperature (RT), washed with dH2O, and dried. The cell-associated dye was extracted with 1 ml 10% acetic acid, aliquots were diluted 1:2 with dH2O, and transferred to 96-well microtiter plates for OD600nm measurements. The cell growth was calculated relative to the OD600nm values read at 24 h. […]

BMRPA1 cells [4] = experiment: NNK exposure: effects on BMRPA1 morphology; format: cell-based, rat; conditions: for cytotoxic changes: one 16 hour exposure
Experimental: All preparations of the carcinogen-containing media were made in a separate laboratory within a NCI-designed and certified chemical hood using prescribed protective measures. 4-(N-nitrosmethylamino)-1-(3-pyridyl)-1-butanone (NNK, American Health Foundation, N.Y.) was prepared as a stock solution of 10 mg NNK in PBS and added to FBS-free cRPMI to make final concentrations of 100, 50, 10, 5, and 1 μg/mil. BMRPA1 cells at passage 36 (p36) were seeded at 10^5/60 mm TCDs and allowed to grow for 6 d. At this time the medium was removed, and the cells were washed 2× with prewarmed (37° C.), FBS-free cRPMI before they were treated with FBS-free cRPMI (4 ml/TCD) containing the different concentrations of NNK. A 6th set of TCDs containing BMRPA1 cells was incubated in FBS-free cRPMI without NNK and was used as controls. The eight TCDs used for each of the six sets of different culture conditions were returned to the 37° C. and 95% air-5% CO2 incubator. After 16 h, the NNK-containing medium was removed from all TCDs and the cells were washed 3× with PBS followed by addition of fresh cRPMI-10% FBS (4 ml/TCD), and the incubation continued. Control cultures without NNK were processed in parallel. The cells were fed every 2 d by replacing ½ of the spent medium with fresh cRPMI-10% FBS. At full confluency the cells were collected from all TCDs, the cells in each group were pooled, and passaged at 2×10^4 into fresh TCDs.
With the purpose of determining whether such changes are induced by a single exposure to NNK and at relatively small NNK concentrations, BMRPA1 cells were exposed for one 16 hour period to serum free medium containing 100, 50, 10, 5, and 1 μg NNK/mL. […] Furthermore, the gradual pace of these changes at 1 μg/mL allows a passage by passage study of both early and late events in the process of NNK-induced transformation. Thus, the results presented below were obtained with BMRPA1 cells exposed once for 16 h to 1 μg NNK/mL FBS-free medium.

Nu/Nu mice = experiment: Tumorigenicity in Nu/Nu mice; format: in vivo, mouse; conditions: 10^7 cloned BMRPA1.NNK cells injected s.c.
Experimental: Nu/Nu mice (7 wks of age) were obtained from Harlan laboratories (Indianapolis, Ind.). The cells used for injection were released by Trypsin-EDTA, washed in cRPMI, and resuspended in PBS at 10^8 cells/mL. Each mouse tested was injected subcutaneously (s.c.) with 0.1 ml of this cell suspension. The animals were inspected for tumor development daily during the first 4 weeks, and thereafter at weekly intervals. Small pieces of the tumors (1-2 mm.) were cut from the core of the tumors and placed in 4% pafaformaldehyde overnight at 4 C. The tissue was then washed in PBS, and placed in 30% sucrose for another 24 h. Sections of tumor tissue frozen in Lipshaw embedding matrix (Pittsburgh, Pa.) were made with a Jung cryostat (Leica), placed on gelatin coated slides, and stored at −20 C. H&E staining was done according to standard procedures.
Cells growing on agar often have the ability to grow as tumors in Nu/Nu mice (Shin et al., 1975; Colburn et al., 1978). The ability of cells to grow in Nu/Nu mice as tumors is believed to be a strong indication of malignant transformation (Chung, 1986). Consequently, 10^7 cloned, live BMRPA1.NNK cells were injected subcutaneously (s.c.) in the posterior flank region of Nu/Nu mice. Another group of mice was injected s.c. under similar conditions with untransformed BMRPA1 cells. […]

Which results are given for `CN(CCCC(=O)c1cccnc1)N=O` [NNK, 4-(methyl-nitrosamino)-1-(3-pyridyl)-1-butanone]?
# of colonies* formed <50 cells (BMRPA1 cells [1]): 14; # of colonies* formed >50 cells (BMRPA1 cells [1]): 15.8 ± 2.5; # of colonies* formed Total (BMRPA1 cells [1]): 17.3 ± 5.2; proliferative changes (BrdU incorporation) (BMRPA1 cells [2]): permanent hyperproliferative changes; cell growth at 1%, 5%, and 10% FBS (BMRPA1 cells [3]): selective growth advantage; phenotypical changes (neoplastic transformation) (BMRPA1 cells [4]; 1 μg/ml, slower rate, over several weeks): phenotypical changes characteristic of neoplastic transformation; cytotoxic changes (BMRPA1 cells [4]; 5, and 1 μg NNK/mL): considerably less; phenotypical changes (neoplastic transformation) (BMRPA1 cells [4]; 100, 50, 10 μg NNK/ml, within a week): phenotypical changes indicative of neoplastic transformation; cytotoxic changes (BMRPA1 cells [4]; larger concentrations (100, 50, 10 μg NNK/mL), serum free medium): cylotoxic changes; # of mice with metastasis/# of mice tested (Nu/Nu mice): 1/6; # of mice with tumor/# of mice tested (Nu/Nu mice): 3/6
